# System: HEK293T cells stably transfected with 8XTBD luciferase reporter and pRLTK
# Assay: YAP Reporter Assay (8XTBD-driven firefly luciferase)
# Assay type: cell-based
# Settings: Homo sapiens, HEK-293T; HEK293T 8XTBD luciferase reporter; 24-hr incubation with compounds; top concentration 3 μM, 10 points
# Procedure: HEK293T cells stably transfected with 8XTBD luciferase reporter and pRLTK in 384-well plates were treated with the test compounds, starting from 3 μM (final concentration in assay plate), 1:3 dilution, and 10 points in quadruplicates. Post 24-hr incubation with compounds at 37° C. and 5% CO2, cells were lysed and 8XTBD-driven firefly luciferase and control TK-driven renilla luciferase activities were measured using Promega Dual-Luciferase Reporter Assay System.
# Reagents: The reagents used for this study are: DMEM: Invitrogen #11960077, Dual-Glo Luciferase Assay System: Promega-E2980, Puromycin Dihydrochloride: Invitrogen-A1113803, 384-well plate: PerkinElmer-6007480, L-GLUTAMINE: Invitrogen-25030164, Hygromycin B: Invitrogen-10687010, and Penicillin-Streptomycin: Merk-TMS-AB2-C
# Media: The media used for this assay were: Culture Medium: DMEM+1 ug/mL puromycin+200 ug/mL hygromycin (with 10% FBS+1 mM L-glutamine); and Assay Medium: DMEM (with 10% FBS+1 mM L-glutamine+1×P/S).
# Cell Plating: The appropriate media was warmed at 37° C. by water bath: Culture Medium, Assay Medium, 1*D-PBS, 0.05% trypsin-EDTA. The cells were trypsinized after removing all media, then washed with 1*sterile D-PBS and then with 2 ml 0.05% trypsin-EDTA. The cells were then incubated at RT for one minute. Then 10 ml/75 cm2 flask Assay Medium was added to each flask. Using a 10 ml pipette, the cells were then gently resuspended in the media, until the clumps completely disappeared. The cells were then transferred into 50 ml centrifuge tubes and were centrifuged at 800 rpm for 5 mins. The medium was removed and the cells were resuspended with Assay Medium. An aliquot of cells was used to count the cell density (cells/ml). The cell suspension was then diluted with Assay Medium to a concentration of 6×10^4 cells/ml. 50 ul cells suspension was then plated to 384-well plate (PerkinElmer-6007480), 3×10^3 cells/well and the cells were incubated in an incubator at 37° C., 5% CO2.
# Compound Treatment: In the afternoon (incubation of the plate with 3-4 hrs), the test compounds were added by Echo, starting from 3 uM (final concentration in the assay plate), 1:3 dilution, 10 points, quadruplicates. The plate was placed at 37° C., 5% CO2 incubator for 24 hrs.
# Detection: The Dual-Glo Luciferase Reagent was prepared by transferring the contents of one bottle of Dual-Glo Luciferase Buffer to one bottle of Dual-Glo Luciferase Substrate to create the Dual-Glo Luciferase Reagent. Mixing was performed by inversion until the substrate was thoroughly dissolved. After mixing, the reagent was aliquoted into 15 ml tubes. In the afternoon (24 hrs post compound treatment), the DMEM+medium in the 384 well plates were aspirated by Microplate Washer.
# Measuring firefly luciferase activity: 20 ul Dual-Glo Luciferase Reagent was added to the 384-well plates. The plates were protected from light to prevent interference with the assay. The plates were shaken for 1 min followed centrifuging plates at 1000 rpm for 30 seconds. After waiting at least 10 minutes, the firefly luminescence was measured by Envision.
# Measuring renilla luciferase activity: 20 ul Stop-Glo Reagent was added to the 384-well plates. The plates were shaken for 1 min and then centrifuged at 1000 rpm for 30 seconds. After waiting at least 10 minutes, the renilla luminescence was measured by Envision.
# Compound IC50 and maximum inhibition on the firefly luciferase and renilla luciferase activities were reported separately.
row,Compound,IC50 [nM]
1,"CN(C#N)CCc1nnc(-c2nccnc2Nc2ccc(C(F)(F)F)cc2)o1 [Compound 1, methyl-[2-[5-[3-[4-(trifluoromethyl)anilino]pyrazin-2-yl]-1,3,4-oxadiazol-2-yl]ethyl]cyanamide]",≤ 100
2,"CCN(C#N)CCc1nnc(-c2nccnc2Nc2ccc(C(F)(F)F)cc2)o1 [Compound 2, ethyl-[2-[5-[3-[4-(trifluoromethyl)anilino]pyrazin-2-yl]-1,3,4-oxadiazol-2-yl]ethyl]cyanamide]",≤ 100
3,"CCN(C#N)Cc1nnc(-c2cccnc2Nc2ccc(C(F)(F)F)cc2)o1 [Compound 5, ethyl-[[5-[2-[4-(trifluoromethyl)anilino]-3-pyridyl]-1,3,4-oxadiazol-2-yl]methyl]cyanamide]",≤ 100
4,"CN(C#N)Cc1nnc(-c2cccnc2Nc2ccc(C(F)(F)F)cc2)o1 [Compound 6, methyl-[[5-[2-[4-(trifluoromethyl)anilino]-3-pyridyl]-1,3,4-oxadiazol-2-yl]methyl]cyanamide]",≤ 100
5,"CCN(Cc1nnc(-c2cccnc2Nc2ccc(C(F)(F)F)cc2)o1)C(=O)OC(C)(C)C [Compound 8, tert-butyl N-ethyl-N-[[5-[2-[4-(trifluoromethyl)anilino]-3-pyridyl]-1,3,4-oxadiazol-2-yl]methyl]carbamate]",1000 to 3000
6,"CNCc1nnc(-c2cccnc2Nc2ccc(C(F)(F)F)cc2)o1 [Compound 9, 3-[5-(methylaminomethyl)-1,3,4-oxadiazol-2-yl]-N-[4-(trifluoromethyl)phenyl]pyridin-2-amine]",100 to 1000
7,"C[C@]1(c2nnc(-c3cccnc3Nc3ccc(C(F)(F)F)cc3)o2)CCNC1=O [Compound 12, (R)-3-methyl-3-(5-(2-((4-(trifluoromethyl)phenyl)amino)pyridin-3-yl)-1,3,4-oxadiazol-2-yl)pyrrolidin-2-one]",≤ 100
8,"C[C@@]1(c2nnc(-c3cccnc3Nc3ccc(C(F)(F)F)cc3)o2)CCNC1=O [Compound 13, (S)-3-methyl-3-(5-(2-((4-(trifluoromethyl)phenyl)amino)pyridin-3-yl)-1,3,4-oxadiazol-2-yl)pyrrolidin-2-one]",≤ 100
9,"CCN(C#N)CCc1nnc(-c2cccnc2Nc2ccc(C(F)(F)F)cc2)o1 [Compound 15, ethyl-[2-[5-[2-[4-(trifluoromethyl)anilino]-3-pyridyl]-1,3,4-oxadiazol-2-yl]ethyl]cyanamide]",≤ 100
10,"CN(C#N)CCc1nnc(-c2cccnc2Nc2ccc(C(F)(F)F)cc2)o1 [Compound 16, methyl-[2-[5-[2-[4-(trifluoromethyl)anilino]-3-pyridyl]-1,3,4-oxadiazol-2-yl]ethyl]cyanamide]",≤ 100
11,"CC1(c2nnc(-c3cccnc3Nc3ccc(C(F)(F)F)cc3)o2)CCNC1=O (stereo not shown) [Compound 19, 3-methyl-3-(5-(2-((4-(trifluoromethyl)phenyl)amino)pyridin-3-yl)-1,3,4-oxadiazol-2-yl)pyrrolidin-2-one]",≤ 100
12,"CC1(c2nnc(-c3nccnc3Nc3ccc(C(F)(F)F)cc3)o2)CCNC1=O (stereo not shown) [Compound 20, 3-methyl-3-{5-[3-(4-trifluoromethyl-phenylamino)-pyrazin-2-yl]-[1,3,4]oxadiazol-2-yl}-pyrrolidin-2-one]",≤ 100
13,"CC[C@@]1(c2nnc(-c3cccnc3Nc3ccc(S(F)(F)(F)(F)F)cc3)o2)CCCNC1=O [Compound 21, (3S)-3-ethyl-3-[5-[2-[4-(pentafluoro-λ6-sulfanyl)anilino]-3-pyridyl]-1,3,4-oxadiazol-2-yl]piperidin-2-one]",≤ 100
14,"CC[C@]1(c2nnc(-c3cccnc3Nc3ccc(S(F)(F)(F)(F)F)cc3)o2)CCCNC1=O [Compound 22, (3R)-3-ethyl-3-[5-[2-[4-(pentafluoro-λ6-sulfanyl)anilino]-3-pyridyl]-1,3,4-oxadiazol-2-yl]piperidin-2-one]",100 to 1000
15,"CC[C@]1(c2nnc(-c3cccnc3Nc3ccc(S(F)(F)(F)(F)F)cc3)o2)CCNC1=O [Compound 23, (3R)-3-ethyl-3-[5-[2-[4-(pentafluoro-λ^6-sulfanyl)anilino]-3-pyridyl]-1,3,4-oxadiazol-2-yl]pyrrolidin-2-one]",100 to 1000
16,"CC[C@@]1(c2nnc(-c3cccnc3Nc3ccc(S(F)(F)(F)(F)F)cc3)o2)CCNC1=O [Compound 24, (3S)-3-ethyl-3-[5-[2-[4-(pentafluoro-λ^6-sulfanyl)anilino]-3-pyridyl]-1,3,4-oxadiazol-2-yl]pyrrolidin-2-one]",≤ 100
17,"CN1CCNC(=O)C1(C)c1nnc(-c2cccnc2Nc2ccc(C(F)(F)F)cc2)o1 (stereo not shown) [Compound 25, 3,4-dimethyl-3-[5-[2-[4-(trifluoromethyl)anilino]-3-pyridyl]-1,3,4-oxadiazol-2-yl]piperazin-2-one]",100 to 1000
18,"CC1(c2nnc(-c3cccnc3Nc3ccc(C(F)(F)F)cc3)o2)NCCNC1=O (stereo not shown) [Compound 26, 3-methyl-3-[5-[2-[4-(trifluoromethyl)anilino]-3-pyridyl]-1,3,4-oxadiazol-2-yl]piperazin-2-one]",≤ 100
19,"C[C@@]1(n2nnc(-c3cccnc3Nc3ccc(S(F)(F)(F)(F)F)cc3)n2)CCNC1=O [Compound 27, (3R)-3-methyl-3-[5-[2-[4-(pentafluoro-λ^6-sulfanyl)anilino]-3-pyridyl]tetrazol-2-yl]pyrrolidin-2-one]",100 to 1000
20,"C[C@]1(n2nnc(-c3cccnc3Nc3ccc(S(F)(F)(F)(F)F)cc3)n2)CCNC1=O [Compound 28, (3S)-3-methyl-3-[5-[2-[4-(pentafluoro-λ^6-sulfanyl)anilino]-3-pyridyl]tetrazol-2-yl]pyrrolidin-2-one]",≤ 100
21,"C[C@]1(c2nnc(-c3cccnc3Nc3ccc(S(F)(F)(F)(F)F)cc3)o2)CCCNC1=O [Compound 29, (3R)-3-methyl-3-[5-[2-[4-(pentafluoro-λ^6-sulfanyl)anilino]-3-pyridyl]-1,3,4-oxadiazol-2-yl]piperidin-2-one]",≤ 100
22,"C[C@@]1(c2nnc(-c3cccnc3Nc3ccc(S(F)(F)(F)(F)F)cc3)o2)CCCNC1=O [Compound 30, (3S)-3-methyl-3-[5-[2-[4-(pentafluoro-λ^6-sulfanyl)anilino]-3-pyridyl]-1,3,4-oxadiazol-2-yl]piperidin-2-one]",100 to 1000
23,"CC[C@@]1(c2nnc(-c3cccnc3Nc3ccc(C(F)(F)F)cc3)o2)CCCNC1=O [Compound 31, (3S)-3-ethyl-3-[5-[2-[4-(trifluoromethyl)anilino]-3-pyridyl]-1,3,4-oxadiazol-2-yl]piperidin-2-one]",100 to 1000
24,"CC[C@]1(c2nnc(-c3cccnc3Nc3ccc(C(F)(F)F)cc3)o2)CCCNC1=O [Compound 32, (3R)-3-ethyl-3-[5-[2-[4-(trifluoromethyl)anilino]-3-pyridyl]-1,3,4-oxadiazol-2-yl]piperidin-2-one]",≤ 100
25,"CC[C@]1(c2nnc(-c3cccnc3Nc3ccc(C(F)(F)F)cc3)o2)CCNC1=O [Compound 33, (3R)-3-ethyl-3-[5-[2-[4-(trifluoromethyl)anilino]-3-pyridyl]-1,3,4-oxadiazol-2-yl]pyrrolidin-2-one]",≤ 100
26,"CC[C@@]1(c2nnc(-c3cccnc3Nc3ccc(C(F)(F)F)cc3)o2)CCNC1=O [Compound 34, (3S)-3-Ethyl-3-[5-[2-[4-(trifluoromethyl)anilino]-3-pyridyl]-1,3,4-oxadiazol-2-yl]pyrrolidin-2-one]",≤ 100
27,"C[C@]1(c2nnc(-c3cccnc3Nc3ccc(S(F)(F)(F)(F)F)cc3)o2)CCNC1=O [Compound 35, (3R)-3-methyl-3-[5-[2-[4-(pentafluoro-λ^6-sulfanyl)anilino]-3-pyridyl]-1,3,4-oxadiazol-2-yl]pyrrolidin-2-one]",100 to 1000
28,"C[C@@]1(c2nnc(-c3cccnc3Nc3ccc(S(F)(F)(F)(F)F)cc3)o2)CCNC1=O [Compound 36, (3S)-3-methyl-3-[5-[2-[4-(pentafluoro-λ^6-sulfanyl)anilino]-3-pyridyl]-1,3,4-oxadiazol-2-yl]pyrrolidin-2-one]",≤ 100

# Reference: patent publication US20230106583A1, “HETEROARYL COMPOUNDS” (Vivace Therapeutics, Inc., priority 2019, published 2023)
